The nature of assay [1]: Cytotoxicity against thymidine kinase-deficient mouse LMTK cells after 5 days by MTT assay. The class given is cell-based. Conditions: L-M(TK-), 120 h.
Another assay concerns A2780. Kind of assay: Cytotoxicity against human A2780 cells after 5 days by MTT assay. Conditions: A2780, 120 h. The class given is functional, cell-based.

The text below walks through data of ChEMBL document CHEMBL2046371, “Synthesis and study of cyclic pronucleotides of 5-fluoro-2'-deoxyuridine” (Bioorg Med Chem Lett, 2012).

Regarding `COC(=O)[C@H](C)N[P@]1(=O)OC[C@H]2O[C@@H](n3cc(F)c(=O)[nH]c3=O)C[C@@H]2O1`, the IC50 in assay [1] turned out to be 60.7 µM; with A2780, 1.4 µM.

In the case of `COC(=O)[C@H](C)N[P@@]1(=O)OC[C@H]2O[C@@H](n3cc(F)c(=O)[nH]c3=O)C[C@@H]2O1`, the IC50 was determined as 12.7 µM in assay [1] and 1.4 µM with A2780.

Turning to `COC(=O)[C@H](C)NP(=O)(OC[C@H]1O[C@@H](n2cc(F)c(=O)[nH]c2=O)C[C@@H]1O)Oc1ccccc1` (stereo not given in full), the concentration for half-maximal inhibition (IC50) in assay [1] came out at 45.6 µM; with A2780, 2.4 µM.

Take `O=c1[nH]c(=O)n([C@H]2C[C@H](O)[C@@H](CO)O2)cc1F` [FLOXURIDINE]: the IC50 in assay [1] was determined as 4.5 µM; in the assay with A2780, 0.026 µM.

With `COC(=O)CNP1(=O)OC[C@H]2O[C@@H](n3cc(F)c(=O)[nH]c3=O)C[C@@H]2O1` (stereo not given in full), the IC50 in assay [1] is 141 µM; in the assay on A2780, 0.55 µM.
